Test results taken from patent US7094759B2, “Oral modified SSP-5 antibacterial composition” (GC Corporation, priority 2003, dated 2006).

Experiments:
Assay in all cases: Adhesion suppressing properties on saliva treatment sensor chip (BIAcore)
Details in all cases: peptide solution 1 mg/mL in PBS pH7.4
S. sanguis (ATCC10556) = assay type: binding, Streptococcus sanguis
Description: (§1) S. sanguis (ATCC10556, ATCC10558), S. mutans (ATCC25175) were used as intraoral bacteria. All bacteria were cultured under an anaerobic conditions using Brain Heart Infusion broth (BHI; Difco Lavoratory, Detroit, Mich.) as a culture medium.
(§2) The specimen was stimulus saliva secreted by biting paraffine wax for 3 minutes by 3 subjects (A, B, C). The saliva was collected, incubated at 4° C. for 5 minutes, and centrifuged at 10000×g for 10 minutes at 4° C. Then, the supernatant was used the saliva specimen.
(§3) The adhesion suppressing properties of bacteria was confirmed by using a sensor chip as a substitute for a tooth. As the sensor chip, Pioneer Sensor Chip F1 (produced by BIAcore Company) was used. The sensor chip F1 was activated at flow speed of […] for 1 minute with 70 μL of 400 mM N-ethyl-N′-(3-diaethylaminoprophyl) carbodiimide and 100 mM N-hydroxy siccinimide solution. Then, the above saliva specimen was diluted 20 times, and bonded on the chip by passing 70 μL of sample over the activated chip. (Hereinafter, this chip was said to as a saliva treatment sensor chip)
(§4) The confirmation method of the adhesion suppressing properties by BIA core™ Biosensor system (produced by BIAcore Company) will be explained. First, each bacteria is passed over the saliva treatment sensor chip at 0.D.=1 (550 nm) and a flow speed of 20 μL/min. Then, the bonding state (Response Unit:RU) between the bacteria and saliva on the surface of the sensor chip was measured. The sensor chip was not carried out the peptide treatment.
(§5) Then, to the other saliva treatment sensor chip, which was different from the saliva treatment sensor chip adhered with bacteria, a modified SSP-5(390–402) peptide solution (1 mg/mL) dissolved with a phosphate buffer solution (PBS, pH7.4) was passed over the sensor chip at flow speed of 10 μL/min, and the surface of the saliva treatment sensor chip was treated with the peptide. Then, each bacteria was passed over the chip at 0.D.=1 (550 nm) and flow speed of 20 μL/min, and the bonding state (Response Unit:RU) between each bacteria and saliva on the sensor surface was measured. The final bacterium adhesion suppressing ratio by the peptide treatment was measured using the following formula 1. Adhesion suppressing ratio=100×{[Bonding state between bacteria and saliva (RU)]−[Bonding state between bacteria and saliva (after the peptide treatment) (RU)]}/[Bonding state between bacteria and saliva (RU)] [Formula 1]

S. sanguis (ATCC10558) = assay type: binding, Streptococcus sanguis
Description: as §1, §2, §3, §4, §5

S. mutans (ATCC25175) = assay type: binding, Streptococcus mutans
Description: as §1, §2, §3
The confirmation method of the adhesion suppressing properties by BIA core™ Biosensor system (produced by BIAcore Company) will be explained. […] Then, the bonding state (Response Unit:RU) between the bacteria and saliva on the surface of the sensor chip was measured. […]
as §5, with “Adhesion suppressing ratio=100×{[Bonding state between bacteria and saliva (RU)]−[Bonding state between bacteria and saliva (after the peptide treatment) (RU)]}/[Bonding state between bacteria and saliva (RU)] [Formula 1]” left out

## modified SSP-5(390–402): Modified fragment (390–402) of Streptococcus sanguis surface protein SSP-5; position 400 (residue 11 of SEQ ID NO: 1) is threonine
S. sanguis (ATCC10556); saliva sample A
  Adhesion suppressing ratio S. sanguis (ATCC10556): 61%
S. sanguis (ATCC10556); saliva sample B
  Adhesion suppressing ratio S. sanguis (ATCC10556): 57%
S. sanguis (ATCC10556); saliva sample C
  Adhesion suppressing ratio S. sanguis (ATCC10556): 65%
S. sanguis (ATCC10558); saliva sample A
  Adhesion suppressing ratio S. sanguis (ATCC10558): 59%
S. sanguis (ATCC10558); saliva sample B
  Adhesion suppressing ratio S. sanguis (ATCC10558): 63%
S. sanguis (ATCC10558); saliva sample C
  Adhesion suppressing ratio S. sanguis (ATCC10558): 61%
S. mutans (ATCC25175); saliva sample A
  Adhesion suppressing ratio S. mutans (ATCC25175): 55%
S. mutans (ATCC25175); saliva sample B
  Adhesion suppressing ratio S. mutans (ATCC25175): 60%
S. mutans (ATCC25175); saliva sample C
  Adhesion suppressing ratio S. mutans (ATCC25175): 58%
